Results reported in ChEMBL document CHEMBL4680119, “Battle tactics against MMP-9; discovery of novel non-hydroxamate MMP-9 inhibitors endowed with PI3K/AKT signaling attenuation and caspase 3/7 activation via Ugi bis-amide synthesis” (Eur J Med Chem, 2020).
Activity calls are given as the source filed them. The calls are words filed in the database; no cut-off is given here.

Columns and labels:
MCF7 [1] = assay: Induction of apoptosis in human MCF-7 cells assessed as early apoptosis by annexinV/propidium iodide staining based by flow cytometry (reference value: 0.47+/- 0.01%); assay type: functional
MCF7 [2] = assay: Induction of apoptosis in human MCF7 cells assessed as increase in caspase-3/7 activation by flow cytometric analysis; assay type: functional
in vitro = conditions: human, WI38 cells and HepG2 cells
Description: Selectivity index, ratio of IC50 for human WI38 cells to IC50 for human HepG2 cells

HepG2 [3] = assay: Inhibition of cell migration in human HepG2 cells incubated for 24 hrs by wound healing assay; assay type: functional
[4] = Induction of apoptosis in […] cells assessed as early apoptosis by annexinV/propidium iodide staining based by flow cytometry (reference value: 0.02+/- 0.01%); assay type: functional, Mus musculus
[5] = Induction of apoptosis in […] cells assessed as late apoptosis by annexinV/propidium iodide staining based by flow cytometry (reference value: 0.015+/- 0.01%); assay type: functional, Mus musculus
MCF7 [6] = assay: Induction of apoptosis in human MCF-7 cells assessed as total apoptosis by annexin V/propidium iodide staining based by flow cytometry (reference value: 0.48+/- 0.01%); assay type: functional
[7] = Induction of apoptosis in […] cells assessed as total apoptosis by annexinV/propidium iodide staining based by flow cytometry (reference value: 0.495+/- 0.01%); assay type: functional, Mus musculus
HepG2 [8] = assay: Induction of apoptosis in human HepG2 cells assessed as late apoptosis by annexinV/propidium iodide staining based by flow cytometry (reference value: 0.1+/- 0.001%); assay type: functional
HepG2 [9] = assay: Anticancer activity against human HepG2 cells assessed as reduction in cell viability by MTT assay; assay type: functional, cell-based
HepG2 [10] = assay: Induction of cell morphological changes in human HepG2 cells assessed as loss in cell shape by microscopic analysis; assay type: functional, cell-based
[11] = target: 72 kDa type IV collagenase (Homo sapiens, UniProt P08253); assay: Inhibition of MMP-2 (unknown origin) by colorimetric assay
MCF7 [12] = assay: Induction of cell morphological changes in human MCF7 cells assessed as loss in cell shape by microscopic analysis; assay type: functional, cell-based
Interstitial collagenase = target: T1, Interstitial collagenase (Homo sapiens, UniProt P03956); assay: Inhibition of MMP-1 (unknown origin) by colorimetric assay
T1 sequence (P03956 whole entry): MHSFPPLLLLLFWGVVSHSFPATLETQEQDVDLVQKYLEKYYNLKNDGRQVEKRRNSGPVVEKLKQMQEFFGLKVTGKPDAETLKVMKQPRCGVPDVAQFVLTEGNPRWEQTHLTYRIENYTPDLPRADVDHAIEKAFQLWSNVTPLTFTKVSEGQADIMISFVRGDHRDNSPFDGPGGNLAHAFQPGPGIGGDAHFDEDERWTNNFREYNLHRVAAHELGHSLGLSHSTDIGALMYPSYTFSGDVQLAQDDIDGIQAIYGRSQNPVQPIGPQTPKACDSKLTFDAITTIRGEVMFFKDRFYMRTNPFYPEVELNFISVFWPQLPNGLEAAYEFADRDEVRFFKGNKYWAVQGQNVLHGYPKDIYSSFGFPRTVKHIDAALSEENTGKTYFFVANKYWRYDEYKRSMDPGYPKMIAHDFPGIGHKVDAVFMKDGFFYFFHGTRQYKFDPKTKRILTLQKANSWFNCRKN

HepG2 [13] = assay: Induction of apoptosis in human HepG2 cells assessed as early apoptosis by annexinV/propidium iodide staining based by flow cytometry (reference value: 0.78+/- 0.09%); assay type: functional
MCF7 [14] = assay: cells; conditions: Homo sapiens
Description: Anticancer activity against human MCF7 cells assessed as reduction in cell viability by MTT assay

[15] = Induction of apoptosis in […] cells assessed as increase in caspase-3/7 activation by flow cytometric analysis; assay type: functional, Mus musculus
WI-38 = assay: Cytotoxicity against human WI-38 cells assessed as reduction in cell viability by MTT assay; assay type: cell-based; conditions: for IC50: Homo sapiens, WI-38; for EC100: human, wi-38
Collagenase 3 = Collagenase 3 (Homo sapiens, UniProt P45452); assay: Inhibition of MMP-13 (unknown origin) by colorimetric assay
MCF7 [16] = assay: Induction of apoptosis in human MCF-7 cells assessed as late apoptosis by annexinV/propidium iodide staining based by flow cytometry (reference value: 0.01+/- 0.001%); assay type: functional
NFS-60 [17] = assay: Induction of cell morphological changes in […] cells assessed as loss in cell shape by microscopic analysis; assay type: functional, cell-based; conditions: Mus musculus
MCF7 [18] = assay: Induction of apoptosis in human MCF7 cells assessed as cell shrinkage by microscopic analysis; assay type: functional, cell-based
HepG2 [19] = assay: Induction of apoptosis in human HepG2 cells assessed as cell shrinkage by microscopic analysis; assay type: functional, cell-based
NFS-60 [20] = assay: Induction of apoptosis in […] cells assessed as cell shrinkage by microscopic analysis; assay type: functional, cell-based
HepG2 [21] = assay: Induction of apoptosis in human HepG2 cells assessed as total apoptosis by annexin/propidium iodide staining based by flow cytometry (reference value: 0.169+/- 0.02%); assay type: functional
[22] = target: Matrix metalloproteinase-9 (Homo sapiens, UniProt P14780); assay: Inhibition of MMP-9 (unknown origin) by colorimetric assay
HepG2 [23] = assay: Induction of apoptosis in human HepG2 cells assessed as increase in caspase-3/7 activation by flow cytometric analysis; assay type: functional
[24] = Anticancer activity against […] cells assessed as reduction in cell viability by MTT assay; assay type: functional, cell-based; conditions: Mus musculus

Chain of 72 kDa type IV collagenase (P08253 whole entry): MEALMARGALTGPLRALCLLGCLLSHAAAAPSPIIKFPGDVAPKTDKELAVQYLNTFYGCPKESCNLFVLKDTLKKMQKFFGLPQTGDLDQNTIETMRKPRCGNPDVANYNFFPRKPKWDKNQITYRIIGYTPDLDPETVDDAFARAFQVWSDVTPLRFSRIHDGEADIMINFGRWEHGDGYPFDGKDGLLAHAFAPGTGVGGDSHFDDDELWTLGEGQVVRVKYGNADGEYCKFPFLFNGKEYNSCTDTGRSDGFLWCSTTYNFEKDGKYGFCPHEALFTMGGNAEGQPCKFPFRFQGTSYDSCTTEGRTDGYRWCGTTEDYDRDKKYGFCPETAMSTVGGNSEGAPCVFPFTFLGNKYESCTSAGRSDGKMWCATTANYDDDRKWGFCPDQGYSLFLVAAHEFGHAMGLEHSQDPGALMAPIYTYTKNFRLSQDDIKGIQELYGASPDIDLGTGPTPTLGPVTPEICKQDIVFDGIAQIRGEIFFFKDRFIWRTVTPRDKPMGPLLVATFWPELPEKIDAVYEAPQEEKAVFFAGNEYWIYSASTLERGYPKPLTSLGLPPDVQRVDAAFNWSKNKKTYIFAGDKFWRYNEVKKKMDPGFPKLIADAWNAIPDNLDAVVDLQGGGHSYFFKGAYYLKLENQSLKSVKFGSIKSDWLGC
Chain of Matrix metalloproteinase-9 (P14780 whole entry): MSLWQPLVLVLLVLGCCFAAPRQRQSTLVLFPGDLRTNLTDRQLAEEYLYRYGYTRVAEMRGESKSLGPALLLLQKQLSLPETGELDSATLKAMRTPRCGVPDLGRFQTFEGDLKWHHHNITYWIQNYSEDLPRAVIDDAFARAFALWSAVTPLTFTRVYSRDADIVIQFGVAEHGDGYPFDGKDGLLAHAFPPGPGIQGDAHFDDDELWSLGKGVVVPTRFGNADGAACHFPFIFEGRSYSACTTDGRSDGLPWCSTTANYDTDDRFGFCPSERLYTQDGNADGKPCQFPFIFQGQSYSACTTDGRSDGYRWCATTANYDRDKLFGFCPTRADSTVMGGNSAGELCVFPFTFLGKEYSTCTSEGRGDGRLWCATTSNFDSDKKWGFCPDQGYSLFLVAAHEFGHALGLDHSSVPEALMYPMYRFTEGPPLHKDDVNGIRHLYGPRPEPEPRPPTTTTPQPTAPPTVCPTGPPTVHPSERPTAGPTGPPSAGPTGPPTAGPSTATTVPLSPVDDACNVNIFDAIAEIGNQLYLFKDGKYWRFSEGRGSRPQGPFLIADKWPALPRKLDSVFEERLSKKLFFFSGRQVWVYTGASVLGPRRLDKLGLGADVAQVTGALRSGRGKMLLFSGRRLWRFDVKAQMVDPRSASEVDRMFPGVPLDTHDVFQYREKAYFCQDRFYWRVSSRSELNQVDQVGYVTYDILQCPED

| Structure (SMILES) | Activity (MCF7 [1]) [%] | Activity (MCF7 [2]) [%] | selectivity ratio (in vitro) | inhibition (INH) (HepG2 [3]) [%] | Activity [4] [%] | Activity [5] [%] | Activity (MCF7 [6]) [%] | Activity [7] [%] | Activity (HepG2 [8]) [%] | IC50 (HepG2 [9]) [nM] | Activity (HepG2 [10]) | Activity (MCF7 [12]) | Activity (HepG2 [13]) [%] | Activity [15] [%] | EC100 (WI-38) [nM] | Activity (MCF7 [16]) [%] | Activity (NFS-60 [17]) | Activity (HepG2 [21]) [%] | Activity (HepG2 [23]) [%] | IC50 [24] [nM] | further results |
| --- | --- | --- | --- | --- | --- | --- | --- | --- | --- | --- | --- | --- | --- | --- | --- | --- | --- | --- | --- | --- | --- |
| O=C(Nc1ccc([N+](=O)[O-])cc1)C(c1ccc([N+](=O)[O-])cc1)N(C(=O)c1ccc(C(F)(F)F)cc1)c1ccccc1 (stereo unspecified) | 18.28 | 65.725 | 170 | 93.77 | 39.15 | 28.33 | 69.005 | 67.485 | 43.95 | 2.2 | Active | Active | 26.46 | 62.703 | 107.4 | 50.72 | Active | 70.415 | 70.745 | 3.61 | IC50 [11]: 139 nM; IC50 (Interstitial collagenase): 41 nM; IC50 (MCF7 [14]): 3.6 nM; IC50 (WI-38): 374 nM; IC50 (Collagenase 3): 113 nM; Activity (MCF7 [18]): Active; Activity (HepG2 [19]): Active; Activity (NFS-60 [20]): Active; IC50 [22]: 7.46 nM |
| O=C(Nc1ccc([N+](=O)[O-])cc1)C(c1ccccc1)N(C(=O)c1ccccc1I)c1ccccc1 (stereo unspecified) | 31.78 | 64.93 | 11.3 | 59.35 | 9.99 | 58.08 | 61.605 | 68.07 | 55.35 | 3.1 | Active | Active | 14.02 | 63.86 | 10.3 | 29.82 | Active | 69.375 | 70.708 | 5.5 | IC50 [11]: 266 nM; IC50 (Interstitial collagenase): 104 nM; IC50 (MCF7 [14]): 6.9 nM; IC50 (WI-38): 35.1 nM; IC50 (Collagenase 3): 280 nM; Activity (MCF7 [18]): Active; Activity (HepG2 [19]): Active; Activity (NFS-60 [20]): Active; IC50 [22]: 4.49 nM |
| COc1cccc2c1C(=O)c1c(O)c3c(c(O)c1C2=O)C[C@@](O)(C(=O)CO)C[C@@H]3O[C@H]1C[C@H](N)[C@H](O)[C@H](C)O1 [DOXORUBICIN] | 13.53 | 42.94 |  |  | 11.379 | 23.215 | 33.974 | 34.595 | 25.49 |  | Active | Active | 10.59 | 45.39 | 12.1 | 20.445 | Active | 36.08 | 48.09 | 13 |  |
| O=C(Nc1ccc([N+](=O)[O-])cc1)C(c1ccccc1)N(Cc1ccccc1)C(=O)Cc1ccccc1 (stereo unspecified) | 27.39 | 51.928 | 55.1 | 71.25 | 16.26 | 39.08 | 49.19 | 55.35 | 36.1 | 5.7 | Active | Active | 19.08 | 53.86 | 93.5 | 21.79 | Active | 55.19 | 59.13 | 5.8 | IC50 [11]: 221 nM; IC50 (Interstitial collagenase): 47 nM; IC50 (MCF7 [14]): 6.6 nM; IC50 (WI-38): 314 nM; IC50 (Collagenase 3): 295 nM; IC50 [22]: 5.56 nM |
